Activity calls are given as the source filed them. The rule behind the calls is not given here.
Experiments:
Caov-3 cell line [1] = experiment: Antiinvasive activity in human Caov3 cells at 1.5 uM incubated for 48 hrs using hematoxylin by microscopy-based transwell assay relative to control; assay type: functional
Caov-3 cell line [2] = experiment: Antiinvasive activity in human Caov3 cells at 2.0 uM incubated for 48 hrs using hematoxylin by microscopy-based transwell assay relative to control; assay type: functional
Caov-3 cell line [3] = experiment: Inhibition of cell migration in human Caov3 cells assessed as decrease in migration potential at 0.5 to 2.0 uM incubated for 48 hrs by wound healing assay (reference value: 89.65%); assay type: functional
Caov-3 cell line [4] = experiment: Inhibition of metastasis in human Caov3 cells assessed as decrease in MMP2 expression level at 0.5 uM incubated for 48 hrs by Western blot analysis; assay type: functional, cell-based
Caov-3 cell line [5] = experiment: Inhibition of metastasis in human Caov3 cells assessed as decrease in MMP9 expression level at 0.5 uM incubated for 48 hrs by Western blot analysis; assay type: functional, cell-based
Caov-3 cell line [6] = experiment: Inhibition of metastasis in human Caov3 cells assessed as decrease in MMP2 expression level at 0.25 uM incubated for 48 hrs by Western blot analysis; assay type: functional, cell-based
Caov-3 cell line [7] = experiment: Inhibition of metastasis in human Caov3 cells assessed as decrease in MMP9 expression level at 0.25 uM incubated for 48 hrs by Western blot analysis; assay type: functional, cell-based
Caov-3 cell line [8] = experiment: Inhibition of metastasis in human Caov3 cells assessed as decrease in FAK activation level at 0.5 uM incubated for 48 hrs by Western blot analysis; assay type: functional, cell-based
Caov-3 cell line [9] = experiment: Inhibition of metastasis in human Caov3 cells assessed as decrease in FAK phosphorylation level at 0.5 to 5.0 uM incubated for 48 hrs by Western blot analysis; assay type: functional, cell-based
Caov-3 cell line [10] = experiment: Antitumor activity against human Caov3 cells xenografted in BALB/c nude mouse assessed as tumor size at 5 mg/kg, ip incubated for 1 hr post tumor implantation and measured after 20 days (reference value: 1956 +/- 367 mm3); assay type: functional
Caov-3 cell line [11] = experiment: Antitumor activity against human Caov3 cells xenografted in BALB/c nude mouse assessed as tumor size at 10 mg/kg, ip incubated for 1 hr post tumor implantation and measured after 20 days (reference value: 1956 +/- 367 mm3); assay type: functional
Caov-3 cell line [12] = experiment: Antimetastasis activity against human Caov3 cells xenografted in BALB/c nude mouse assessed as reduction of metastasis in liver at 10 mg/kg, ip incubated for 1 hr post tumor implantation and measured after 20 days by H and E staining-based assay; assay type: functional, organism-based
Caov-3 cell line [13] = experiment: Antimetastasis activity against human Caov3 cells xenografted in BALB/c nude mouse assessed as reduction of metastasis in intestine at 10 mg/kg, ip incubated for 1 hr post tumor implantation and measured after 20 days by H and E staining-based assay; assay type: functional, organism-based
Caov-3 cell line [14] = experiment: Antimetastasis activity against human Caov3 cells xenografted in BALB/c nude mouse assessed as reduction of metastasis in spleen at 10 mg/kg, ip incubated for 1 hr post tumor implantation and measured after 20 days by H and E staining-based assay; assay type: functional, organism-based
Caov-3 cell line [15] = experiment: Antimetastasis activity against human Caov3 cells xenografted in BALB/c nude mouse assessed as reduction of metastasis in peritoneal cavity at 10 mg/kg, ip incubated for 1 hr post tumor implantation and measured after 20 days by H and E staining-based assay; assay type: functional, organism-based
Caov-3 cell line [16] = experiment: (§1) Antimetastasis activity against human Caov3 cells xenografted in BALB/c nude mouse assessed as reduction in vWF expression in liver lesions at 10 mg/kg, ip incubated for 1 hr post tumor implantation and measured after 20 days by DAB and hematoxylin staining based immunohistochemical analysis relative to control; assay type: functional; parameters: scale not given: the % may be the effect or the level left
Caov-3 cell line [17] = experiment: as §1, with “lungs” for “liver”; assay type: functional; parameters: scale not given: the % may be the effect or the level left
Caov-3 cell line [18] = experiment: as §1, with “intestinal” for “liver”; assay type: functional; parameters: scale not given: the % may be the effect or the level left
Caov-3 cell line [19] = experiment: as §1, with “peritoneal” for “liver”; assay type: functional; parameters: scale not given: the % may be the effect or the level left
Caov-3 cell line [20] = experiment: (§2) Antimetastasis activity against human Caov3 cells xenografted in BALB/c nude mouse assessed as reduction in vWF expression in liver lesions at 5 mg/kg, ip incubated for 1 hr post tumor implantation and measured after 20 days by DAB and hematoxylin staining based immunohistochemical analysis; assay type: functional, organism-based
Caov-3 cell line [21] = experiment: (§3) Antimetastasis activity against human Caov3 cells xenografted in BALB/c nude mouse assessed as reduction in vWF expression in lungs lesions at 5 mg/kg, ip incubated for 1 hr post tumor implantation and measured after 20 days by DAB and hematoxylin staining based immunohistochemical analysis; assay type: functional, organism-based
Caov-3 cell line [22] = experiment: (§4) Antimetastasis activity against human Caov3 cells xenografted in BALB/c nude mouse assessed as reduction in vWF expression in intestinal lesions at 5 mg/kg, ip incubated for 1 hr post tumor implantation and measured after 20 days by DAB and hematoxylin staining based immunohistochemical analysis; assay type: functional, organism-based
Caov-3 cell line [23] = experiment: (§5) Antimetastasis activity against human Caov3 cells xenografted in BALB/c nude mouse assessed as reduction in vWF expression in peritoneal lesions at 5 mg/kg, ip incubated for 1 hr post tumor implantation and measured after 20 days by DAB and hematoxylin staining based immunohistochemical analysis; assay type: functional, organism-based
Caov-3 cell line [24] = experiment: as §1, with “infiltration of macrophages” for “vWF expression”; assay type: functional; parameters: scale not given: the % may be the effect or the level left
Caov-3 cell line [25] = experiment: as §1, with “infiltration of macrophages” for “vWF expression”, “lungs” for “liver”; assay type: functional; parameters: scale not given: the % may be the effect or the level left
Caov-3 cell line [26] = experiment: as §1, with “infiltration of macrophages” for “vWF expression”, “intestinal” for “liver”; assay type: functional; parameters: scale not given: the % may be the effect or the level left
Caov-3 cell line [27] = experiment: as §1, with “infiltration of macrophages” for “vWF expression”, “peritoneal” for “liver”; assay type: functional; parameters: scale not given: the % may be the effect or the level left
Caov-3 cell line [28] = experiment: as §2, with “infiltration of macrophages” for “vWF expression”; assay type: functional, organism-based
Caov-3 cell line [29] = experiment: as §3, with “infiltration of macrophages” for “vWF expression”; assay type: functional, organism-based
Caov-3 cell line [30] = experiment: as §4, with “infiltration of macrophages” for “vWF expression”; assay type: functional, organism-based
Caov-3 cell line [31] = experiment: as §5, with “infiltration of macrophages” for “vWF expression”; assay type: functional, organism-based

Fc1ccccc1-n1cc(COCc2ccccc2S)nn1
Activity (Caov-3 cell line [1]): 39.14% | Activity (Caov-3 cell line [2]): 8.62% | inhibition (INH) (Caov-3 cell line [3]): 6.43% | inhibition (Caov-3 cell line [4]): Active | inhibition (Caov-3 cell line [5]): Active | inhibition (Caov-3 cell line [6]): inactive | inhibition (Caov-3 cell line [7]): inactive | inhibition (Caov-3 cell line [8]): Active | inhibition (Caov-3 cell line [9]): Active | Activity (Caov-3 cell line [10]): 1258 mm3 | Activity (Caov-3 cell line [11]): 213.34 mm3 | Activity (Caov-3 cell line [12]): Active | Activity (Caov-3 cell line [13]): Active | Activity (Caov-3 cell line [14]): Active | Activity (Caov-3 cell line [15]): Active | Activity (Caov-3 cell line [16]): 7% | Activity (Caov-3 cell line [17]): 8% | Activity (Caov-3 cell line [18]): 6% | Activity (Caov-3 cell line [19]): 5% | Activity (Caov-3 cell line [20]): inactive | Activity (Caov-3 cell line [21]): inactive | Activity (Caov-3 cell line [22]): inactive | Activity (Caov-3 cell line [23]): inactive | Activity (Caov-3 cell line [24]): 8% | Activity (Caov-3 cell line [25]): 9% | Activity (Caov-3 cell line [26]): 7% | Activity (Caov-3 cell line [27]): 5% | Activity (Caov-3 cell line [28]): inactive | Activity (Caov-3 cell line [29]): inactive | Activity (Caov-3 cell line [30]): inactive | Activity (Caov-3 cell line [31]): inactive

Reference: ChEMBL document CHEMBL4346695, “Thiophenol-formaldehyde triazole causes apoptosis induction in ovary cancer cells and prevents tumor growth formation in mice model” (2019)
